The nature of series [1]: Solubility of the compound in PBS buffer at pH 7. The class given is physicochemical.
Series [2] can be described thus: Solubility of the compound in water by HPLC analysis. It is filed as physicochemical.
For series [3], the target named is Mast/stem cell growth factor receptor Kit (Homo sapiens) (UniProt P10721). Kind of series: Inhibition of c-Kit in human PANC1 cells assessed as reduction in Erk phosphorylation at 50 uM. It is filed as cell-based.
The test system of series [4] is HT-29. Kind of series: Suppression of cisplatin-induced Rad51 expression in human HT-29 cells xenografted in in-vivo model by Western blot analysis. It is filed as functional, cell-based. For orientation: A xenograft is tissue or cells of one species grown in another, often human tumour cells in immunodeficient mice.
Series [5] deals with SF-767. Kind of series: Cytotoxicity against human SF-767 cells assessed as cell death at 1 uM after 24 hrs by MTS assay. The class given is functional, cell-based. For orientation: Tetrazolium dyes change colour on reduction, which living cells bring about.
Series [6] relates to MIA PaCa-2. The series can be described thus: Antitumor activity against human MIAPaCa2 cells xenografted in athymic nude mouse assessed as reduction in tumor growth at 5 mg/kg, iv administered every 7 days for 28 days. The class given is functional, organism-based.
The subject of series [7] is A549. The series can be described thus: Antitumor activity against human A549 cells xenografted in athymic nude mouse assessed as reduction in tumor growth at 50 mg/kg, po qd administered for 21 days in presence of 30 mg/kg carboplatin/ 20 mg/kg taxol. The class given is functional, organism-based.
Series [8] concerns OVCAR-3. Kind of series: Cytostatic activity against human OVCAR3 cells assessed as reduction in cell proliferation. It is filed as functional, cell-based.
For a further series, the system named is TT. Kind of series: Antitumor activity against human TT cells xenografted in ip dosed athymic nude mouse assessed as reduction in tumor growth administered as qd for 2 weeks. The class given is functional, organism-based.
For series [9], the system named is HT-29. The series can be described thus: Suppression of ionizing radiation-induced Rad51 expression in human HT-29 cells pretreated with compound followed by ionizing radiation by Western blot analysis. The class given is functional, cell-based. For orientation: Immunoblotting shows a protein as a band on a membrane.
A further series deals with SBcl2. Kind of series: Antitumor activity against human SBcl2 cells xenografted in ip dosed athymic nude mouse assessed as reduction in tumor growth administered as qd for 5 days. It is filed as functional, organism-based.
Series [10] concerns A549. Kind of series: Suppression of Rad51 expression in human A549 cells at 0.71 to 3.82 uM after 24 hrs by probing blot analysis. The class given is functional, cell-based.
In series [11] the test system is OVCAR-3. Kind of series: Antitumor activity against human OVCAR3 cells xenografted in po dosed athymic nude mouse assessed as reduction in tumor growth administered as qd for 28 days. The class given is functional, organism-based.
In series [12] the test system is SF-767. The series can be described thus: Cytotoxicity against human SF-767 cells assessed as cell death at 1 uM in presence of […] ionizing radiation after 24 hrs by MTS assay. The class given is functional, cell-based.
For a further series, the system named is Canis familiaris. Kind of series: In vivo inhibition of Rad51 expression in po dosed Beagle dog skin administered daily for 28 days measured post last dose by immunohistochemistry staining based assay. It is filed as functional, organism-based. The settings on record: Canis lupus familiaris.
Series [13] concerns MIA PaCa-2. The series can be described thus: Antitumor activity against human MIAPaCa2 cells xenografted in athymic nude mouse assessed as reduction in tumor growth at 2.5 to 5 mg/kg, iv administered every 3 days for 28 days. It is filed as functional, organism-based.
Series [14] concerns A549. The series can be described thus: Antitumor activity against human A549 cells xenografted in athymic nude mouse assessed as reduction in tumor growth at 50 mg/kg, po qd administered for 21 days in presence of 30 mg/kg carboplatin. It is filed as functional, organism-based.
Another series concerns Mus musculus. Kind of series: Toxicity in athymic nude mouse xenografted with human A549 cells assessed as loss of body weight at 10 mg/kg, po qd administered 5 days for 3 weeks. The class given is organism-based. The note with it: in vivo.

Molecules are shown by their SMILES. The source made the active and inactive calls. No cut-off for these calls is given here.

Mast/stem cell growth factor receptor Kit (Homo sapiens), sequence (P10721 whole entry): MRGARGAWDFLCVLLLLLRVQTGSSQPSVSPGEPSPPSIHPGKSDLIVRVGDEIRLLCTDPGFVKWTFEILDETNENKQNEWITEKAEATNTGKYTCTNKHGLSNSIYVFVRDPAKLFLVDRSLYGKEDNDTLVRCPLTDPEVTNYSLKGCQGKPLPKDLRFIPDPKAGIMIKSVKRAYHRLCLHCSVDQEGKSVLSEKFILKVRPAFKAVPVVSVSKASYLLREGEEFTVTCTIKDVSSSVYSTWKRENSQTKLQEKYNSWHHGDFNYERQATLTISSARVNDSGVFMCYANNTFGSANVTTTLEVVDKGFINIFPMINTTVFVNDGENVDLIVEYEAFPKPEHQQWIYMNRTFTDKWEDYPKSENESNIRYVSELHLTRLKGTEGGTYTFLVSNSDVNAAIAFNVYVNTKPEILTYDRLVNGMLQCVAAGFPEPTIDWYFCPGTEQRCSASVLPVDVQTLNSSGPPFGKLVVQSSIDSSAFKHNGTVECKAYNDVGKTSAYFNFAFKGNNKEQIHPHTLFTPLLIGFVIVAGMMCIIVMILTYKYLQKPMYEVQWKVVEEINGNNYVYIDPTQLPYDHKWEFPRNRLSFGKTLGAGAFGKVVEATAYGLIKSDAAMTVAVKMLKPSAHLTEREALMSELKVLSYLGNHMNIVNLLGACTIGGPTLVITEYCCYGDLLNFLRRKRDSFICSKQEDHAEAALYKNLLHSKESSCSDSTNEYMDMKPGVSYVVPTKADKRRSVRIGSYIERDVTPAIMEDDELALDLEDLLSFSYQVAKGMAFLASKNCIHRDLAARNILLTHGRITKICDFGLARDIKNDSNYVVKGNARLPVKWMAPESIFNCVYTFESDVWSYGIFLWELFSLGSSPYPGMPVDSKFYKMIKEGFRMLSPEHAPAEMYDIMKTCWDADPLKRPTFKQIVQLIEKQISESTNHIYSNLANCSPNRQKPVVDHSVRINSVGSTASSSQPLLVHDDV

For orientation: solubility means how much of the substance goes into solution per volume. A lower solubility goes with little dissolved substance. In the case of `O=S(=O)(O)O.S=C(NCc1ccc2c(c1)OCO2)N1CCN(c2ncnc3c2oc2ccccc23)CC1`, the solubility was 1.7 µg/mL in series [1] and 3.3 µg/mL in [2].
Take `Cc1ccc(S(=O)(=O)O)cc1.S=C(NCc1ccc2c(c1)OCO2)N1CCN(c2ncnc3c2oc2ccccc23)CC1`: the solubility in [2] came to 1.87 µg/mL.
On the same count and under the same terms, the same measure for `O=S(=O)(O)c1ccccc1.S=C(NCc1ccc2c(c1)OCO2)N1CCN(c2ncnc3c2oc2ccccc23)CC1`: 4.26 µg/mL.
`CS(=O)(=O)O.S=C(NCc1ccc2c(c1)OCO2)N1CCN(c2ncnc3c2oc2ccccc23)CC1`: the solubility in series [1] turned out to be 2.16 µg/mL; in series [2], 5.96 µg/mL.
For the molecule `COc1cccc(-c2cc(=O)c3ccccc3o2)c1N`, in series [3], the inhibition entry is “Active”.
As to `S=C(NCc1ccc2c(c1)OCO2)N1CCN(c2ncnc3c2oc2ccccc23)CC1`, the inhibition result (in the series with HT-29 [4]; in the series with HT-29 [9]; in [3]) was “Active” each time. Besides, the result in the series with SF-767 [5], in the series with MIA PaCa-2 [6], with A549 [7], in the series on OVCAR-3 [8], in the series on SBcl2 and with SF-767 [12] was Active. Further, the result with MIA PaCa-2 [13] and in the series with A549 [14] was Active. Besides, the Activity entry with TT and in the series on OVCAR-3 [11] was “Dose-dependent effect” each time. Moreover, the result in the series with A549 [10] was inactive. The inhibition result in the series with Canis familiaris was “Dose-dependent effect”.
Regarding `O=c1[nH]cc(F)c(=O)[nH]1` [FLUOROURACIL], the Activity entry in the series with Mus musculus is listed as “Non-Toxic”.

For the origin of these results see ChEMBL document CHEMBL3991943, “Pharmaceutical formulations comprising salts of a protein kinase inhibitor and methods of using same” (2013).
